The values that follow are results of earlier work, collected in patent US20230354819A1 (priority 2020, published 2023).

Bridge positions count the residues as written; N and C are the ends. Square brackets hold non-standard residues; d marks the D form. Peptide text beside a SMILES is read from it. * marks the point of attachment. ξ: configuration not given here. Pentadecanoyl(3ξ-OH,15-Gua) = N=C(N)NCCCCCCCCCCCCC(O)CC(=O)*; d(aThr) = C[C@@H](O)[C@@H](N)C(=O)O

In the series the test system is cultured parsley cells. Particulars: WO 2006/016558.

On to `CC(C)[C@@H]1NC(=O)[C@@H](C(C)C)NC(=O)[C@@H](NC(=O)CC(O)CCCCCCCCCCCCN=C(N)N)C(C)OC(=O)[C@@H](C)NC(=O)[C@@H](CCC(N)=O)NC(=O)[C@@H]([C@H](C)O)NC1=O` (stereo in doubt) [fusaricidin B], for which the “induction of resistance reactions” value was “induce resistance reactions”.

As to `CC(C)[C@@H]1NC(=O)[C@@H](C(C)C)NC(=O)[C@@H](NC(=O)CC(O)CCCCCCCCCCCCN=C(N)N)[C@@H](C)OC(=O)[C@@H](C)NC(=O)[C@@H](CC(N)=O)NC(=O)[C@@H]([C@@H](C)O)NC1=O` (some centres unmarked) [fusaricidin A] ({Pentadecanoyl(3ξ-OH,15-Gua)}-T[dV]V[d(aThr)][dN][dA]; ester 1-C), the “induction of resistance reactions” value was “induce resistance reactions”.
